Blank lines part the entries; values can stand above or below the compound they belong to. Activity calls are given as the source filed them. Rule as the data show it, for most assays here: actives have a measured IC50 and inactives only a lower limit.
What was measured:
[1] = molecular target: G-protein coupled receptor 55 (Homo sapiens, UniProt Q9Y2T6); test: inhibition of LPI-stimulated GPR55 beta-arrestin translocation – imaging, U2OS, beta-arrestin-GFP, LPI agonist, primary screen (AID 2013); format: functional;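 also: antagonist potency measured as reduced agonist-driven arrestin aggregation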
Sequence of G-protein coupled receptor 55 (Q9Y2T6 whole entry): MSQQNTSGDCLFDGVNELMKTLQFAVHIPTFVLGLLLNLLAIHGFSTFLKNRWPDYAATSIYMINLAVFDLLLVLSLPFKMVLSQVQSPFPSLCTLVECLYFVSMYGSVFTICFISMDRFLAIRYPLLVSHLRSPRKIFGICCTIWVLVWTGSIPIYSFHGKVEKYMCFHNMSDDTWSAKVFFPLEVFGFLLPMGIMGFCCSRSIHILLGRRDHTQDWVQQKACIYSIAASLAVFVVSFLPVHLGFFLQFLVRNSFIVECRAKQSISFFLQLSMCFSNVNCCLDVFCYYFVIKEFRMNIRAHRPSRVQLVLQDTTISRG

[2] = molecular target: DNA dC->dU-editing enzyme APOBEC-3G (Homo sapiens, UniProt Q9HC16); test: Dose Response confirmation of small molecule APOBEC3G DNA Deaminase Inhibitors via a fluorescence-based single-stranded DNA deaminase assay. [Related pubchem assays (depositor defined):AID493012, AID493028]; format: functional
Sequence of DNA dC->dU-editing enzyme APOBEC-3G (Q9HC16 whole entry): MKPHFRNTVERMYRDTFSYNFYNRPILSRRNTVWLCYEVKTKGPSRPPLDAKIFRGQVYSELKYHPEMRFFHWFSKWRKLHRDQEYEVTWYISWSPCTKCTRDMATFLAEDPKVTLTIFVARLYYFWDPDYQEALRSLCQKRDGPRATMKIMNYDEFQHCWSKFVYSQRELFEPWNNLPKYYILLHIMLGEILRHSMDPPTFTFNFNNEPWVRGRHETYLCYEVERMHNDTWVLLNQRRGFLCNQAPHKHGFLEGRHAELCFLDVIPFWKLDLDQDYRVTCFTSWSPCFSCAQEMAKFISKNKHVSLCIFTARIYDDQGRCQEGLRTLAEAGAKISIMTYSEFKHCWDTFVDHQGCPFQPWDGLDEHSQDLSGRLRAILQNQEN

[3] = viability of uninfected HEp-2 cells – cell-based, HTS, cytotoxicity control for RSV inhibitor project, dose response (AID 2410); format: functional; details: human respiratory syncytial virus
CAAX prenyl protease 2 = CAAX prenyl protease 2 (Saccharomyces cerevisiae S288c, UniProt Q03530); format: biochemical
Sequence of CAAX prenyl protease 2 (Q03530 whole entry): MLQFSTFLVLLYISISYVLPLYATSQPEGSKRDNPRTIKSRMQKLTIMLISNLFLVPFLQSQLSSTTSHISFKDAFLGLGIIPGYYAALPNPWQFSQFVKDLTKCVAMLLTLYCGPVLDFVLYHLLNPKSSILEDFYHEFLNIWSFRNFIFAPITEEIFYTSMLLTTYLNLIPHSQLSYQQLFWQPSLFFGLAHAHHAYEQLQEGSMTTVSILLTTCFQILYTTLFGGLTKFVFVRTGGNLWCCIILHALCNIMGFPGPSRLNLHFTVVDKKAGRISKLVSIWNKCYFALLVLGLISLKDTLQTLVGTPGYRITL

Tumor necrosis factor = Tumor necrosis factor (Homo sapiens, UniProt P01375); test: analog potency on TNFa NF-kB signaling – cell-based, revised, SAR follow-up (AID 2337); format: functional
Sequence of Tumor necrosis factor (P01375 whole entry, the tested form may be a part): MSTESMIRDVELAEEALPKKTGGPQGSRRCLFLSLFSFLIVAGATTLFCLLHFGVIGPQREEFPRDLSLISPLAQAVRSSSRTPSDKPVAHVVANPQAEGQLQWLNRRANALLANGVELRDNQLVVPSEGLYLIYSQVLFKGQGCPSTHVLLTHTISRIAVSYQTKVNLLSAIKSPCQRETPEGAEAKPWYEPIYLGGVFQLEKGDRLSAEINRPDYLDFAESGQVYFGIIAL

[4] = molecular target: T1, Nucleotide-binding oligomerization domain-containing protein 1 (Homo sapiens, UniProt Q9Y239); test: blockers of NOD1 pathway activity – revised, SAR follow-up (AID 2333); format: functional
T1 sequence (Q9Y239 whole entry): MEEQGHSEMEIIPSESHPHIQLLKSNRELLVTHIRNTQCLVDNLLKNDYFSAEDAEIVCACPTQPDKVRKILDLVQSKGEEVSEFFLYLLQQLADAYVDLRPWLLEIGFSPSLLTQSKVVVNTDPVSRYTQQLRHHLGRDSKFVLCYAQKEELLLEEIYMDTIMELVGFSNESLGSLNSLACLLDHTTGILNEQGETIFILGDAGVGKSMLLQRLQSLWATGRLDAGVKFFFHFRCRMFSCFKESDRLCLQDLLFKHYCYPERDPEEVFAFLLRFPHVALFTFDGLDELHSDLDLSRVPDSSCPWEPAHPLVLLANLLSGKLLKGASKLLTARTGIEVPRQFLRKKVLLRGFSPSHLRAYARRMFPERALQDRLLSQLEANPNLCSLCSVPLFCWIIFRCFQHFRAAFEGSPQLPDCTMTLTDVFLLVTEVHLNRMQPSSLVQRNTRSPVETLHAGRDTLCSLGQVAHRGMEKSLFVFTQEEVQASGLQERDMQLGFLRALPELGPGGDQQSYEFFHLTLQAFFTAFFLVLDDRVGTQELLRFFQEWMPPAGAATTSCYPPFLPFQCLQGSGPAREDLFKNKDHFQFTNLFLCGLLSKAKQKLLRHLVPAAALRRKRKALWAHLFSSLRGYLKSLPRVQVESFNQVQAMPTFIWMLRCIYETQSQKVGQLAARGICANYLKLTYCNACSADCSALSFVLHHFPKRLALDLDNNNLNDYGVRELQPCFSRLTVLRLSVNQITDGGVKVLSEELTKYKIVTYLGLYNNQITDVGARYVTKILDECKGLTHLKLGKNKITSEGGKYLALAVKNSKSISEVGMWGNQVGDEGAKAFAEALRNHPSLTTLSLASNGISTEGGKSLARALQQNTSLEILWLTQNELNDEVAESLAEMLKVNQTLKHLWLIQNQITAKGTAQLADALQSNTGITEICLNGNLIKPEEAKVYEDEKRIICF

HEK293 = test: cells; details: Homo sapiens;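 also: cells exposed to compound for 14 hours overnight before viability readout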
[5] = molecular target: Nucleotide-binding oligomerization domain-containing protein 2 (Homo sapiens, UniProt Q9HC29); test: PubChem AID 2334; format: functional
Sequence of Nucleotide-binding oligomerization domain-containing protein 2 (Q9HC29 whole entry, the tested form may be a part): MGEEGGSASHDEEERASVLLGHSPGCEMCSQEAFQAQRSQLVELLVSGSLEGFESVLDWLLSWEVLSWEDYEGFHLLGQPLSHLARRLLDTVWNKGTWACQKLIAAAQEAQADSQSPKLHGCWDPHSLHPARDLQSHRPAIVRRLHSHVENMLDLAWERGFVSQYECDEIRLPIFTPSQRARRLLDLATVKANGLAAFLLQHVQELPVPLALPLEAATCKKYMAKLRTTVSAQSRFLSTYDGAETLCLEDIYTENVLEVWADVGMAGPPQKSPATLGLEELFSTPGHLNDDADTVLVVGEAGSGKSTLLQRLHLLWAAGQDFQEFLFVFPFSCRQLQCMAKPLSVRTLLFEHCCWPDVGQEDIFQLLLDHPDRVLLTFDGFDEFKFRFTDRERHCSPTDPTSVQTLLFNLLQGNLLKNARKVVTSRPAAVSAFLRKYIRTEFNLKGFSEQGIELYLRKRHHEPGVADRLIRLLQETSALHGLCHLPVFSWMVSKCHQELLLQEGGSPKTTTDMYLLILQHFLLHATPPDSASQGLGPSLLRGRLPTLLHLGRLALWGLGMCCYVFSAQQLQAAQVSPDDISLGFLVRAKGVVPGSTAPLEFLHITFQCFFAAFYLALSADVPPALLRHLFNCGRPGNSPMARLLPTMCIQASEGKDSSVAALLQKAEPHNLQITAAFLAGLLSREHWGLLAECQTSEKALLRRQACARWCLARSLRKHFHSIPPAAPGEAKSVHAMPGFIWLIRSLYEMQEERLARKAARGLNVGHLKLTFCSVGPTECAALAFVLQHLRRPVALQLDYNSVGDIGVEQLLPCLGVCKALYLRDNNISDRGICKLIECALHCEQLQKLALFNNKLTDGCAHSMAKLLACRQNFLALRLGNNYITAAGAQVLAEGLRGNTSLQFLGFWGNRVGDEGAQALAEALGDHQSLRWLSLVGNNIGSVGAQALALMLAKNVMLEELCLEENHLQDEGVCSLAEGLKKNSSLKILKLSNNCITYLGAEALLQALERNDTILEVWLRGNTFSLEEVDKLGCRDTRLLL

[6] = molecular target: T2, Tyrosine-protein phosphatase non-receptor type 7 (Homo sapiens, UniProt P35236); test: redox-active compounds inhibiting HePTP phosphatase – biochemical, fluorescence, mechanism study (AID 2068); format: functional
T2 sequence (P35236 whole entry): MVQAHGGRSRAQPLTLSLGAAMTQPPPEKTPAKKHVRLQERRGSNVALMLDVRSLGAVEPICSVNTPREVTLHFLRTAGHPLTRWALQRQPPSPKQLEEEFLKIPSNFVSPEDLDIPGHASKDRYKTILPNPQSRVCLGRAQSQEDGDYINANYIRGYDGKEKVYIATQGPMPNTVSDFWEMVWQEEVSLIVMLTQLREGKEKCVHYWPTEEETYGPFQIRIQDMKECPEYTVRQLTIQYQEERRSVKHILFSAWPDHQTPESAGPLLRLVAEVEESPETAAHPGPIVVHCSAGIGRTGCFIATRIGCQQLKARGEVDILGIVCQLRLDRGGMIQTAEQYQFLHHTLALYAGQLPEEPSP

Structure (SMILES): CCCCOc1ccccc1NC(=O)c1scc2c1OCCO2
IC50 [1]: 3.01 µM (active)

Structure (SMILES): c1ccc(-c2nn3c(Cn4cnc5ccccc54)nnc3s2)cc1
IC50 (cells): 5.46 µM (active)
IC50 [2]: > 100 µM (inactive)
CC50 [3]: 42.6 µM (active)

Structure (SMILES): O=C(Nc1nc2ccccc2n1Cc1ccc(Cl)cc1)c1ccccc1
IC50 (Tumor necrosis factor): > 20 µM (inactive)
IC50 [4]: > 20 µM (inactive)
IC50 (HEK293): > 20 µM (inactive)
IC50 [5]: > 20 µM (inactive)

Structure (SMILES): Cc1ccc2cccc(N=Cc3c(C)[nH]n(-c4ccccc4)c3=O)c2n1
IC50 (Tumor necrosis factor): > 20 µM (inactive)
IC50 [4]: > 20 µM (inactive)
IC50 (HEK293): > 20 µM (inactive)
IC50 [5]: > 20 µM (inactive)

Second part, the compound after the results:

AC50 (CAAX prenyl protease 2): 18 µM (active)
Structure (SMILES): COc1ccc(-c2ccc3oc(-c4ccc(OC)cc4)c(-c4ccc(OC)cc4)c3c2)cc1

IC50 [6]: 0.575 µM (active)
Structure (SMILES): O=C(Nc1ccccc1)Nc1ccc2nc(-c3ccco3)c(-c3ccco3)nc2c1

IC50 [1]: 3.59 µM (active)
Structure (SMILES): C#CCOc1c(Br)cc(/C=N\NC(=O)CN2CCOCC2)cc1OCC
